# Reference: patent US4788188A, “Quinolylglycinamide derivatives, the process for preparation thereof and their therapeutic application as psychotropic drugs” (Sanofi (S.A.), priority 1985, dated 1988)
# Where a name gives a salt, the structure may show the parent alone.
# Target: benzodiazepine receptors
# Assay: Affinity for benzodiazepine receptors: inhibition of specific binding of [3H]flunitrazepam (WASTEK et al., modified)
# Parameters: species or system rats
# Settings: 50% inhibition of specific binding of [3H]flunitrazepam, rat brain membranes
# Description: This study was performed according to the technique of WASTEK et al., (Europ. J. Pharmacol., 1978, 50, 445-447) slightly modified.
# Rats are sacrificed by decapitation, and the brain is removed, ground, suspended, centrifuged and resuspended.
# Samples of this suspension are incubated in the presence of [^3 H]flunitrazepam, alone or in the presence of increasing concentrations of the test compound.
# The radioactivity bound on the membranes is then determined by liquid scintillation.
# The concentration of product which 50% inhibits the specific binding of [^3 H]flunitrazepam (IC50) is thereby determined.
row,Structure (SMILES),IC50 [µM]
1,"CCOC(=O)c1cnc2ccc(C)cc2c1NCC(=O)N(CC)CC [Derivative 2, 2-[(3-Ethoxycarbonyl-6-methyl)-4-quinolyl]amino-N,N-diethylacetamide hydrochloride]",0.041
2,"CCCCc1ccc2ncc(C(=O)OCC)c(NCC(=O)N(CC)CC)c2c1 [Derivative 6, 2-(3-Ethoxycarbonyl-6-butyl-4-quinolyl)amino-N,N-diethylacetamide]",0.155
3,"CCOC(=O)c1cnc2ccc(F)cc2c1NCC(=O)N(CC)CC [Derivative 7, 2-(3-Ethoxycarbonyl-6-fluoro-4-quinolyl)amino-N,N-diethylacetamide]",0.639
4,"CCOC(=O)c1cnc2ccc(C3CCCCC3)cc2c1NCC(=O)N(CC)CC [Derivative 9, 2-(3-Ethoxycarbonyl-6-cyclohexyl-4-quinolyl)amino-N,N-diethylacetamide]",0.9
5,"CCOC(=O)c1cnc2ccccc2c1NCC(=O)N(CC)CC [Derivative 10, 2-(3-Ethoxycarbonyl-4-quinolyl)amino-N,N-diethylacetamide]",1.56
6,"CCCN(CCC)C(=O)CNc1c(C(=O)OCC)cnc2ccccc12 [Derivative 15, 2-(3-Ethoxycarbonyl-4-quinolyl)amino-N,N-dipropylacetamide]",0.483
7,"CCCN(CCC)C(=O)CNc1c(C(=O)OCC)cnc2ccc(OCC)cc12 [Derivative 16, 2-(3-Ethoxycarbonyl-6-ethoxy-4-quinolyl)amino-N,N-dipropylacetamide]",0.038
8,"CCCN(CCC)C(=O)CNc1c(C(=O)OCC)cnc2ccc([N+](=O)[O-])cc12 [Derivative 18, 2-(3-Ethoxycarbonyl-6-nitro-4-quinolyl)amino-N,N-dipropylacetamide]",0.026
9,"CCCN(CCC)C(=O)CNc1c(C(=O)OCC)cnc2ccc(C(F)(F)F)cc12 [Derivative 19, 2-(3-Ethoxycarbonyl-6-trifluoromethyl-4-quinolyl)amino-N,N-dipropylacetamide]",0.028
10,"CCCN(CCC)C(=O)CNc1c(C(=O)OCC)cnc2ccc(SC)cc12 [Derivative 20, 2-(3-Ethoxycarbonyl-6-methylthio-4-quinolyl)amino-N,N-dipropylacetamide]",0.04
11,"CCOC(=O)c1cnc2ccc(Cl)cc2c1NCC(=O)N(CC(C)C)CC(C)C [Derivative 21, 2-(3-Ethoxycarbonyl-6-chloro-4-quinolyl)amino-N,N-diisobutylacetamide]",0.028
12,"CCOC(=O)c1cnc2ccc(Cl)cc2c1NCC(=O)N(C)c1ccccc1 [Derivative 22, 2-(3-Ethoxycarbonyl-6-chloro-4-quinolyl)amino-N-methyl-N-phenylacetamide]",0.014
13,"CCOC(=O)c1cnc2ccc(Cl)cc2c1NCC(=O)N(C)C1CCCCC1 [Derivative 23, 2-(3-Ethoxycarbonyl-6-chloro-4-quinolyl)amino-N-methyl-N-cyclohexylacetamide]",0.1
14,"CCOC(=O)c1cnc2ccc(Cl)cc2c1NCC(=O)N(C)c1ccc(Cl)cc1 [Derivative 24, 2-(3-Ethoxycarbonyl-6-chloro-4-quinolyl)amino-N-methyl-N-(4-chlorophenyl)acetamide]",0.251
15,"CCOC(=O)c1cnc2ccc(Cl)cc2c1NCC(=O)N1CCCCC1 [Derivative 25, 1-{2-[(3-Ethoxycarbonyl-6-chloro-4-quinolyl)amino]acetyl}piperidine]",0.148
16,"CCOC(=O)c1cnc2ccc(Cl)cc2c1NCC(=O)N1CCCCCC1 [Derivative 27, 1-{2-[(3-Ethoxycarbonyl-6-chloro-4-quinolyl)amino]acetyl}homopiperidine]",0.038
17,"CCOC(=O)c1cnc2ccc(Cl)cc2c1NCC(=O)N1CCOCC1 [Derivative 28, 1-{2-[(3-Ethoxycarbonyl-6-chloro-4-quinolyl)amino]acetyl}morpholine]",0.6
18,"CCOC(=O)c1cnc2ccc(Cl)cc2c1NCC(N)=O [Derivative 30, 2-[(3-Ethoxycarbonyl-6-chloro-4-quinolyl)amino]acetamide]",0.7
19,"CCOC(=O)c1cnc2ccc(Cl)cc2c1NCC(=O)N(C(C)C)C(C)C [Derivative 34, 2-(3-Ethoxycarbonyl-6-chloro-4-quinolyl)amino-N,N-diisopropylacetamide]",0.048
20,"CCCN(C(=O)CNc1c(C(=O)OCC)cnc2ccc(Cl)cc12)c1ccccc1 [Derivative 35, 2-(3-Ethoxycarbonyl-6-chloro-4-quinolyl)amino-N-propyl-N-phenylacetamide]",0.027
21,"C#CCN(C)C(=O)CNc1c(C(=O)OCC)cnc2ccc(Cl)cc12 [Derivative 36, 2-(3-Ethoxycarbonyl-6-chloro-4-quinolyl)amino-N-methyl-N-(2-propynyl)acetamide]",0.099
22,"O=C(O)c1cnc2ccc(Cl)cc2c1NCC(=O)N1CCCCCC1 [Derivative 45, 1-{2-[(3-Carboxy-6-chloro-4-quinolyl)amino]acetyl}-homopiperidine]",0.007
23,"CCCN(CCC)C(=O)CNc1c(C(=O)O)cnc2ccc(Br)cc12 [Derivative 47, 2-(3-Carboxy-6-bromo-4-quinolyl)amino-N,N-dipropylacetamide monohydrate]",0.001
24,"CCN(CC)C(=O)CNc1c(C(=O)OC(C)C)cnc2ccc(Cl)cc12 [Derivative 48, 2-(3-Isopropyloxycarbonyl-6-chloro-4-quinolyl)amino-N,N-diethylacetamide]",0.069
25,"CCN(CC)C(=O)CNc1c(C(=O)OCc2ccccc2)cnc2ccc(Cl)cc12 [Derivative 50, 2-(3-Benzyloxycarbonyl-6-chloro-4-quinolyl)amino-N,N-diethylacetamide]",0.027
26,"CCCN(CCC)C(=O)CN(C)c1c(C(=O)OCc2ccccc2)cnc2ccc(C)cc12 [Derivative 53, [N'-(3-Benzyloxycarbonyl-6-methyl-4-quinolyl)-N'-methylamino]-N,N-dipropylacetamide]",0.638
27,"CCCNC(=O)c1cnc2ccc(Cl)cc2c1NCC(=O)N(CC)CC [Derivative 55, 2-[3-(N-Propylcarbamoyl)-6-chloro-4-quinolyl]amino-N,N-diethylacetamide]",0.15
28,"CCN(CC)C(=O)CNc1c(C(=O)Nc2ccccc2)cnc2ccc(Cl)cc12 [Derivative 56, 2-[3-(N-Phenylcarbamoyl)-6-chloro-4-quinolyl]amino-N,N-diethylacetamide]",0.136
29,"CCCN(CCC)C(=O)CNc1c(C(C)=O)cnc2ccc(C)cc12 [Derivative 66, 2-(3-Acetyl-6-methyl-4-quinolyl)amino-N,N-dipropylacetamide]",0.092

# System: pentetrazole seizures
# Assay: Anticonvulsant activity: protection against pentetrazole seizures (EVERETT and RICHARDS)
# Format: in vivo, mice
# Settings: Mus musculus, po, 0.5 h, pentetrazole 125 mg/kg subcutaneously, no tonic seizures during 30 minutes, 95% confidence limits (FINNEY), read-out: ED50 (Confidence interval)
# Description: The protective effect produced by the compound of the inventon against pentetrazole seizures was studied.
# This test was carried out according to the method of EVERETT and RICHARDS (J. Pharm. Exp. Ther., 1944, 81, 402-407). The test products and reference products were administered orally (suspended in gum arabic) to batches of 10 mice, 30 minutes […] pentetrazole (125 mg/kg subcutaneously).
row,Structure (SMILES),ED50 [mg/kg]
1,"CCOC(=O)c1cnc2ccccc2c1NCC(=O)N(CC)CC [Derivative 10, 2-(3-Ethoxycarbonyl-4-quinolyl)amino-N,N-diethylacetamide]",68
2,"CCOC(=O)c1cnc2ccc(Cl)cc2c1NCC(=O)N1CCCCC1 [Derivative 25, 1-{2-[(3-Ethoxycarbonyl-6-chloro-4-quinolyl)amino]acetyl}piperidine]",33
3,"CCCN(CCC)C(=O)CN(C)c1c(C(=O)OCC)cnc2ccc(C)cc12.Cl [Derivative 61, [N'-(3-Ethoxycarbonyl-6-methyl-4-quinolyl)-N'-methylamino]-N,N-dipropylacetamide hydrochloride]",24
4,"CCCN(CCC)C(=O)CN(C)c1c(C(=O)OCC)cnc2ccc(Br)cc12 [Derivative 63, [N'-(3-Ethoxycarbonyl-6-bromo-4-quinolyl)-N'-methylamino]-N,N-dipropylacetamide]",24
5,"CCC1(c2ccccc2)C(=O)NC(=O)NC1=O [Phenobarbital, reference compound]",10

# Same assay, conditions: oral; pentetrazole 125 mg/kg subcutaneously; no tonic seizures during 30 minutes; 95% confidence limits (FINNEY); 30 min
row,Structure (SMILES),ED50 (Confidence interval)
1,CCOC(=O)c1cnc2ccc(Cl)cc2c1NCC(=O)N(CC)CC [1 maleate],27 (18-36) mg/kg
